Assays:
[1] = system: Staphylococcus aureus CCM 4516/08; assay: Screen against bacteria, MIC/IC80; format: cell-based; conditions: SA
[2] = system: Staphylococcus aureus H 5996/08 Methiciline-resistant; assay: Screen against bacteria, MIC/IC80; format: cell-based; conditions: MRSA
[3] = system: Staphylococcus epidermidis H 6966/08; assay: Screen against bacteria, MIC/IC80; format: cell-based; conditions: SE
[4] = system: Enterococcus sp. J 14365/08; assay: Screen against bacteria, MIC/IC80; format: cell-based; conditions: EF
[5] = system: Escherichia coli CCM4517; assay: Screen against bacteria, MIC/IC80; format: cell-based; conditions: EC
[6] = system: Klebsiella pneumoniae D 11750/08; assay: Screen against bacteria, MIC/IC80; format: cell-based; conditions: KP
[7] = system: Klebsiella pneumoniae J 14368/08 ESBL-positive; assay: Screen against bacteria, MIC/IC80; format: cell-based; conditions: KP-E
[8] = system: Pseudomonas aeruginosa CCM 1961; assay: Screen against bacteria, MIC/IC80; format: cell-based; conditions: PA
[9] = system: Candida albicans ATCC 44859; assay: In vitro antifungal activity, MIC by microdilution (NCCLS M27-A)
Procedure: (§1) In vitro antifungal activities of the compounds were evaluated on the collection of fungal strains deposited at the Department of Biological and Medical Sciences, Faculty of Pharmacy, Charles University, Czech Republic. All the isolates were maintained on Sabouraud dextrose agar prior to being tested.
(§2) Minimum inhibitory concentrations (MICs) were determined by the microdilution format of the NCCLS M27-A guidelines. […] RPMI 1640 (Sevapharma, Prague) medium supplemented with L-glutamine and buffered with 0.165 M morpholinepropanesulfonic acid to pH 7.0 was used as the test medium. The wells of the microdilution tray contained 100 μl of the RPMI 1640 medium with 2-fold serial dilutions of the compounds (1000 to 0.24 μmol/l for the new compounds) and 100 μl of inoculum suspension. Fungal inoculum in RPMI 1640 was prepared to give a final concentration of 5×103±0.2 cfu·ml-1. The trays were incubated at 35° C. and MICs were read visually for filamentous fungi and photometrically for yeasts as an optical density (OD) at 540 nm after 24 h and 48 h. The MICs were defined as 80% inhibition of the growth of control. MICs were determined twice and in duplicate. The deviations from the usually obtained were no higher than the nearest concentration value up and down the dilution scale.

[10] = system: Candida albicans ATCC 90028; assay: as above
Procedure: as §1, §2

[11] = system: Candida parapsilosis ATCC 22019; assay: as above; conditions: CP
[12] = system: Candida krusei ATCC 6258; assay: as above
[13] = system: Candida krusei E28; assay: as above
Procedure: All the isolates were maintained on Sabouraud dextrose agar prior to being tested.
as §2

[14] = system: Candida tropicalis 156; assay: as above; conditions: CT
[15] = system: Candida glabrata 20/l; assay: as above; conditions: CG
Procedure: as §1, §2

[16] = system: Candida lusitaniae 2446/l; assay: as above; conditions: CL
Procedure: as §1, §2

[17] = system: Aspergillus fumigatus 231; assay: as above; conditions: AF
[18] = system: Absidia corymbifera 272; assay: as above; conditions: AC
Procedure: as §1, §2

[19] = system: Trichophyton mentagrophytes 445; assay: as above; conditions: TM

Measured: MIC/IC80

R-3-methyl-1-[1-(ethoxyethoxycarbonyl)-1-phenylmethoxycarbonylmethyl]imidazolium octyl sulphate [KG301]
>1000 µM: [1]; 24 h | [1]; 48 h | [2]; 24 h | [2]; 48 h | [3]; 24 h | [3]; 48 h | [4]; 24 h | [4]; 48 h | [5]; 24 h | [5]; 48 h | [6]; 24 h | [6]; 48 h | [7]; 24 h | [7]; 48 h | [8]; 24 h | [8]; 48 h | [9]; CA1, 24 h | [9]; CA1, 48 h | [10]; CA2, 24 h | [10]; CA2, 48 h | [11]; 24 h | [11]; 48 h | [12]; CK1, 24 h | [12]; CK1, 48 h | [13]; CK2, 24 h | [13]; CK2, 48 h | [14]; 24 h | [14]; 48 h | [15]; 24 h | [15]; 48 h | [16]; 24 h | [16]; 48 h | [17]; 24 h | [17]; 48 h | [18]; 24 h | [18]; 48 h | [19]; 72 h | [19]; 120 h

COC(=O)[C@H](OC(=O)C[n+]1ccn(C)c1)c1ccccc1 [KG90, R-3-methyl-1-[1-(methoxycarbonyl)-1-phenylmethoxycarbonylmethyl]imidazolium bromide]
>1000 µM: [1]; 24 h | [1]; 48 h | [2]; 24 h | [2]; 48 h | [3]; 24 h | [3]; 48 h | [4]; 24 h | [4]; 48 h | [5]; 24 h | [5]; 48 h | [6]; 24 h | [6]; 48 h | [7]; 24 h | [7]; 48 h | [8]; 24 h | [8]; 48 h | [9]; CA1, 24 h | [9]; CA1, 48 h | [10]; CA2, 24 h | [10]; CA2, 48 h | [11]; 24 h | [11]; 48 h | [12]; CK1, 24 h | [12]; CK1, 48 h | [13]; CK2, 24 h | [13]; CK2, 48 h | [14]; 24 h | [14]; 48 h | [15]; 24 h | [15]; 48 h | [16]; 24 h | [16]; 48 h | [17]; 24 h | [17]; 48 h | [18]; 24 h | [18]; 48 h | [19]; 72 h | [19]; 120 h

COC(=O)C(OC(=O)C[n+]1ccn(C)c1)c1ccccc1 (centres unmarked) [KG89, RS-3-methyl-1-[1-(methoxycarbonyl)-1-phenylmethoxycarbonylmethyl]imidazolium bromide]
>1000 µM: [1]; 24 h | [1]; 48 h | [2]; 24 h | [2]; 48 h | [3]; 24 h | [3]; 48 h | [4]; 24 h | [4]; 48 h | [5]; 24 h | [5]; 48 h | [6]; 24 h | [6]; 48 h | [7]; 24 h | [7]; 48 h | [8]; 24 h | [8]; 48 h | [9]; CA1, 24 h | [9]; CA1, 48 h | [10]; CA2, 24 h | [10]; CA2, 48 h | [11]; 24 h | [11]; 48 h | [12]; CK1, 24 h | [12]; CK1, 48 h | [13]; CK2, 24 h | [13]; CK2, 48 h | [14]; 24 h | [14]; 48 h | [15]; 24 h | [15]; 48 h | [16]; 24 h | [16]; 48 h | [17]; 24 h | [17]; 48 h | [18]; 24 h | [18]; 48 h | [19]; 72 h | [19]; 120 h

CCCCCCCCOS(=O)(=O)[O-].CCOCCOC(=O)C(OC(=O)Cn1cc[n+](C)c1)c1ccccc1 (centres unmarked) [KG400, RS-3-methyl-1-[1-(ethoxyethoxycarbonyl)-1-phenylmethoxycarbonylmethyl]imidazolium octyl sulphate]
>1000 µM: [1]; 24 h | [1]; 48 h | [2]; 24 h | [2]; 48 h | [3]; 24 h | [3]; 48 h | [4]; 24 h | [4]; 48 h | [5]; 24 h | [5]; 48 h | [6]; 24 h | [6]; 48 h | [7]; 24 h | [7]; 48 h | [8]; 24 h | [8]; 48 h | [9]; CA1, 24 h | [9]; CA1, 48 h | [10]; CA2, 24 h | [10]; CA2, 48 h | [11]; 24 h | [11]; 48 h | [12]; CK1, 24 h | [12]; CK1, 48 h | [13]; CK2, 24 h | [13]; CK2, 48 h | [14]; 24 h | [14]; 48 h | [15]; 24 h | [15]; 48 h | [16]; 24 h | [16]; 48 h | [17]; 24 h | [17]; 48 h | [18]; 24 h | [18]; 48 h | [19]; 72 h | [19]; 120 h
